Measurements from patent US11111233B2, “Amino pyrimidine compound for inhibiting protein tyrosine kinase activity” (Shenzhen TargetRx, Inc., priority 2016, dated 2021).
Read-outs that look alike come from different tables or passages of the source.

Key:
[1] = test system: Skin cancer cell line A431 (WT); assay: Cytotoxicity test (MTS cell viability), A431; type: cell-based
[2] = test system: lung cancer cells HCC827 (Del19); assay: Cytotoxicity test (MTS cell viability), HCC827; type: cell-based
[3] = molecular target: WT EGFR (Homo sapiens (Human), UniProt P00533); assay: Kinase inhibition assay (HTRF), WT EGFR; type: biochemical
WT EGFR, sequence (P00533 25-1210): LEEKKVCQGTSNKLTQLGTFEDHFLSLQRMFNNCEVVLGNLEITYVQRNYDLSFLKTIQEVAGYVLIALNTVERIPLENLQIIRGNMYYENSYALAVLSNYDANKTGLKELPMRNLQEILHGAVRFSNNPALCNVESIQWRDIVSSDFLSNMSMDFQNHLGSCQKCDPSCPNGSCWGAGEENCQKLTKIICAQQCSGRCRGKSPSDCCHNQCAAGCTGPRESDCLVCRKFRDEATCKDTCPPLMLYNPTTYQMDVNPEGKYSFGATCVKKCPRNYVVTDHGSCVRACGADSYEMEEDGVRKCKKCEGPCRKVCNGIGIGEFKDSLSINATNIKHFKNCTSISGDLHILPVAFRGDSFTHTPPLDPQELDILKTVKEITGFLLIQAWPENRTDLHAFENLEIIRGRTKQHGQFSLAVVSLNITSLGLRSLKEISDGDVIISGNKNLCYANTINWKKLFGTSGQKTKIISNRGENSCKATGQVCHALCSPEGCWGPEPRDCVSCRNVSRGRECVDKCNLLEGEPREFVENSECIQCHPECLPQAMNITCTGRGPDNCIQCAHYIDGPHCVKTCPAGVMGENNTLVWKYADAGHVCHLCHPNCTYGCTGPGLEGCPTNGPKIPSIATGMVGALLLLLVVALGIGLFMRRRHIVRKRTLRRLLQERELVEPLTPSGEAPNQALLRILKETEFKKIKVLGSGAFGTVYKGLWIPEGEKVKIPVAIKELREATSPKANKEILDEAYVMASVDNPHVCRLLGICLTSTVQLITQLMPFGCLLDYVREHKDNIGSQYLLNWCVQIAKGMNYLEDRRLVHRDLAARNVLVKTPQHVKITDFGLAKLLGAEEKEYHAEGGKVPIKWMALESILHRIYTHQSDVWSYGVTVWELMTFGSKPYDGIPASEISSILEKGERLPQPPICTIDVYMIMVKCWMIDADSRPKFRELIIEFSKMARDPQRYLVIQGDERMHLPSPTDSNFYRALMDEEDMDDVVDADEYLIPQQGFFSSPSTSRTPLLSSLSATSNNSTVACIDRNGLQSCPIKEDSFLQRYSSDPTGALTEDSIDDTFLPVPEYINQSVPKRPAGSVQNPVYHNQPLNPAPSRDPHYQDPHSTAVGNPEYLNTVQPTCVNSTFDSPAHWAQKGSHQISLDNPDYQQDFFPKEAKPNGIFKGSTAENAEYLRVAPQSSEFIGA

[4] = molecular target: EGFR [L858R/T790M] (Homo sapiens (Human), UniProt P00533, L858R/T790M); assay: Kinase inhibition assay (HTRF), EGFR [L858R/T790M]; type: biochemical
EGFR [L858R/T790M], sequence (P00533 25-1210 T790M/L858R): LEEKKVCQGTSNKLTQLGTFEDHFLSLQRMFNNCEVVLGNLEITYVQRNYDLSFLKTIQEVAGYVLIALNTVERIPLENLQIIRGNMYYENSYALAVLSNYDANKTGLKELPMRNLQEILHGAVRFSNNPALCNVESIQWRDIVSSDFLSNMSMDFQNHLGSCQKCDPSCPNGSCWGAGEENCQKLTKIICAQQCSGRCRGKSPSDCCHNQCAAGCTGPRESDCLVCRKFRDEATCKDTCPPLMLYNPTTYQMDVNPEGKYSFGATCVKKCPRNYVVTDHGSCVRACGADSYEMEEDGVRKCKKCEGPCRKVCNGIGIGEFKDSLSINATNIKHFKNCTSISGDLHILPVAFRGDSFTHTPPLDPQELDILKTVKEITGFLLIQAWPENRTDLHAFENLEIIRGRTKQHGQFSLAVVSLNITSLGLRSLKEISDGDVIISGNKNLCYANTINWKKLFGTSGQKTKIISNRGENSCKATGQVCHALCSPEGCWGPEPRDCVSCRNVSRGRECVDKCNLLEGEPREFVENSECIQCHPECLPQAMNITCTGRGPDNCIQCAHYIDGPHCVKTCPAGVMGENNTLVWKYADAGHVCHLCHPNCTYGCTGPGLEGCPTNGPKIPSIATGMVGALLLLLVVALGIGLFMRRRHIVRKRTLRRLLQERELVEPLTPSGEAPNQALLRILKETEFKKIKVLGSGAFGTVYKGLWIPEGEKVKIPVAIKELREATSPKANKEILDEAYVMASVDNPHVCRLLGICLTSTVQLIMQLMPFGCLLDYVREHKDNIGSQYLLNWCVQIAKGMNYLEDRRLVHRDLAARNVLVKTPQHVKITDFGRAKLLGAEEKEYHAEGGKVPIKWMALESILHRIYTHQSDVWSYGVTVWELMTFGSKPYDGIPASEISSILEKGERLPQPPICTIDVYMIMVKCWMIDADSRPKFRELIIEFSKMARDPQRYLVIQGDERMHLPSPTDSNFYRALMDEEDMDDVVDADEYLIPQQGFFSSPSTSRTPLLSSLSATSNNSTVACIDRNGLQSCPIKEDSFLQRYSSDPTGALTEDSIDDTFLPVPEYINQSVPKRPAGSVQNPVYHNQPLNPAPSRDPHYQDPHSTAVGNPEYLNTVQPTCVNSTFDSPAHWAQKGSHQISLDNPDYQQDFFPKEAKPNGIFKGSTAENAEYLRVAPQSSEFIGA

[5] = Homo sapiens, A-431, 72 h, read-out: A431 (WT) IC50(nM)
[6] = Homo sapiens, HCC827, 72 h, read-out: HCC827 (Del19) IC50(nM)
[7] = HTRF Kinase TK kit, 10 min pre-incubation, 20 min reaction
[8] = Homo sapiens, A-431, MTS, 72 hours, read-out: A431 (WT) IC50
[9] = Homo sapiens, HCC827, MTS, 72 hours, read-out: HCC827 (Del19) IC50
[10] = HTRF Kinase TK kit, 10 min pre-incubation, 20 min reaction, read-out: EGFR(L858R/T790M) IC50

IC50 [3, 7] | IC50 [4, 10] | Compound | IC50 [2, 6] | IC50 [1, 8] | other results
– | – | C=CC(=O)Nc1cc(Nc2nccc(-c3cn(C)c4ccccc34)n2)c(OC)cc1N(C)CCN(C)C [AZD9291, reference compound] | 10 to 100 nM | – | IC50 [1, 5]: 100 to 400 nM
1 to 50 nM | – | C=CC(=O)Nc1cc(Nc2ncc(Cl)c(-c3cc(F)c4nc(C)n(C(C)C)c4c3)n2)c(OC)cc1N(C)CCN(C)C [Example 1, N-(2-((2-(dimethylamino)ethyl)(methyl)amino)-5-((5-chloro-4-(4-fluoro-1-isopropyl-2-methyl-1H-benzo[d]imidazole-6-yl)pyrimidin-2-yl)amino)-4-methoxyphenyl)acrylamide] | – | > 1000 nM | IC50 [2, 9]: 10 to 100 nM
1 to 50 nM | < 1 nM | C=CC(=O)Nc1cc(Nc2ncc(C)c(-c3cc(F)c4nc(C)n(C(C)C)c4c3)n2)c(OC)cc1N(C)CCN(C)C [Example 2, N-(2-((2-(dimethylamino)ethyl)(methyl)amino)-5-((5-methyl-4-(4-fluoro-1-isopropyl-2-methyl-1H-benzo[d]imidazole-6-yl)pyrimidin-2-yl)amino)-4-methoxyphenyl)acrylamide] | – | > 1000 nM | IC50 [2, 9]: 10 to 100 nM
1 to 50 nM | 1 to 50 nM | C=CC(=O)Nc1cc(Nc2ncc(OC)c(-c3cc(F)c4nc(C)n(C(C)C)c4c3)n2)c(OC)cc1N(C)CCN(C)C [Example 3, N-(2-((2-(dimethylamino)ethyl)(methyl)amino)-5-((5-methoxy-4-(4-fluoro-1-isopropyl-2-methyl-1H-benzo[d]imidazole-6-yl)pyrimidin-2-yl)amino)-4-methoxyphenyl)acrylamide] | – | – | –
1 to 50 nM | < 1 nM | C=CC(=O)Nc1cc(Nc2ncc(C(F)(F)F)c(-c3cc(F)c4nc(C)n(C(C)C)c4c3)n2)c(OC)cc1N(C)CCN(C)C [Example 4, N-(2-((2-(dimethylamino)ethyl)(methyl)amino)-5-((5-trifluoromethyl-4-(4-fluoro-1-isopropyl-2-methyl-1H-benzo[d]imidazole-6-yl)pyrimidin-2-yl)amino)-4-methoxyphenyl)acrylamide] | – | – | –
1 to 50 nM | < 1 nM | C=CC(=O)Nc1cc(Nc2nccc(-c3cc(F)c4nc5n(c4c3)C(C)(C)CC5)n2)c(OC)cc1N(C)CCN(C)C [Example 5, N-(2-((2-(dimethylamino)ethyl)(methyl)amino)-5-((4-(5-fluoro-1,1-dimethyl-2,3-dihydro-1H-benzo[d]imidazole[1,2-a]pyrrol-6-yl)pyrimidin-2-yl)amino)-4-methoxyphenyl)acryl amide] | – | – | –
1 to 50 nM | < 1 nM | C=CC(=O)Nc1cc(Nc2nccc(-c3cc(F)c4nc(OC)n(C(C)C)c4c3)n2)c(OC)cc1N(C)CCN(C)C [Example 6, N-(2-((2-(dimethylamino)ethyl)(methyl)amino)-5-((4-(4-fluoro-1-isopropyl-2-methoxy-1H-benzo[d]imidazole-6-yl)pyrimidin-2-yl)amino)-4-methoxyphenyl)acrylamide] | – | > 1000 nM | IC50 [2, 9]: 10 to 100 nM
1 to 50 nM | 1 to 50 nM | C=CC(=O)Nc1cc(Nc2ncc(Br)c(-c3cc(F)c4nc(C)n(C(C)C)c4c3)n2)c(OC)cc1N(C)CCN(C)C [Example 8, N-(2-((2-(dimethylamino)ethyl)(methyl)amino)-5-((5-bromo-4-(4-fluoro-1-isopropyl-2-methyl-1H-benzo[d]imidazole-6-yl)pyrimidin-2-yl)amino)-4-methoxyphenyl)acrylamide] | – | > 1000 nM | IC50 [2, 9]: 10 to 100 nM
> 100 nM | 1 to 50 nM | C=CC(=O)Nc1cc(Nc2ncc(C3CC3)c(-c3cc(F)c4nc(C)n(C(C)C)c4c3)n2)c(OC)cc1N(C)CCN(C)C [Example 9, N-(2-((2-(dimethylamino)ethyl)(methyl)amino)-5-((5-cyclopropyl-4-(4-fluoro-1-isopropyl-2-methyl-1H-benzo[d]imidazole-6-yl)pyrimidin-2-yl)amino)-4-methoxyphenyl)acrylamide] | – | > 1000 nM | IC50 [2, 9]: 400 to 1000 nM
– | – | C=CC(=O)Nc1cc(Nc2nccc(-c3cc(F)c4nc(C)n(C(C)C)c4c3)n2)c(OC)cc1OCCOC [Example 10, N-(2-(2-methoxy-ethyl-oxy)-5-((4-(4-fluoro-1-isopropyl-2-methyl-1H-benzo[d]imidazole-6-yl)pyrimidin-2-yl)amino)-4-methoxyphenyl)acrylamide] | 400 to 1000 nM | > 1000 nM | IC50 [3]: > 100 nM; IC50 [4]: 50 to 100 nM
– | – | C=CC(=O)Nc1cc(Nc2nccc(-c3cc(F)c4nc(C)n(C(C)C)c4c3)n2)c(OC)cc1OCCN(C)C [Example 12, N-(2-(2-(dimethylamino)ethyl)(oxy)-5-((4-(4-fluoro-1-isopropyl-2-methyl-1H-benzo[d]imidazole-6-yl)pyrimidin-2-yl)amino)-4-methoxyphenyl)acrylamide] | < 10 nM | – | IC50 [1, 5]: 100 to 400 nM
1 to 50 nM | < 1 nM | C=CC(=O)Nc1cc(Nc2ncc(C#N)c(-c3cc(F)c4nc(C)n(C(C)C)c4c3)n2)c(OC)cc1N(C)CCN(C)C [Example 18, N-(2-((2-(dimethylamino)ethyl)(methyl)amino)-5-((5-cyano-4-(4-fluoro-1-isopropyl-2-methyl-1H-benzo[d]imidazole-6-yl)pyrimidin-2-yl)amino)-4-methoxyphenyl)acrylamide] | – | – | –
1 to 50 nM | < 1 nM | C=CC(=O)Nc1cc(Nc2ncc(F)c(-c3cc(F)c4nc(C)n(C(C)C)c4c3)n2)c(OC)cc1N(C)CCN(C)C [Example 19, N-(2-((2-(dimethylamino)ethyl)(methyl)amino)-5-((5-fluoro-4-(4-fluoro-1-isopropyl-2-methyl-1H-benzo[d]imidazole-6-yl)pyrimidin-2-yl)amino)-4-methoxyphenyl)acrylamide] | – | – | –
– | – | C=CC(=O)Nc1cc(Nc2nccc(-c3cc(F)c4oc(C)nc4c3)n2)c(OC)cc1N(C)CCN(C)C [Example 31, N-(2-((2-(dimethylamino)ethyl)(methyl)amino)-5-((4-(7-fluoro-2-methylbenzo[d]oxazole-5-yl)pyrimidin-2-yl)amino)-4-methoxyphenyl)acrylamide] | – | > 1000 nM | –
1 to 50 nM | < 1 nM | C=CC(=O)Nc1cc(Nc2nccc(-c3ccc4ncn(C(C)C)c4c3)n2)c(OC)cc1N(C)CCN(C)C [Example 36, N-(2-((2-(dimethylamino)ethyl)(methyl)amino)-5-((4-(1-isopropyl-1H-benzo[d]imidazole-6-yl)pyrimidin-2-yl)amino)-4-methoxyphenyl)acrylamide] | – | – | –
1 to 50 nM | 1 to 50 nM | C=CC(=O)Nc1cc(Nc2nccc(-c3ccc4nc(C(F)(F)F)n(C(C)C)c4c3)n2)c(OC)cc1N(C)CCN(C)C [Example 37, N-(2-((2-(dimethylamino)ethyl)(methyl)amino)-5-((4-(1-isopropyl-2-(trifluoromethyl)-1H-benzo[d]imidazole-6-yl)pyrimidin-2-yl)amino)-4-methoxyphenyl)acrylamide] | – | – | –
– | – | C=CC(=O)Nc1cc(Nc2nccc(-c3cc(F)c4c(cnn4C)c3)n2)c(OC)cc1N(C)CCN(C)C [Example 39, N-(2-((2-(dimethylamino)ethyl)(methyl)amino)-5-((4-(7-fluoro-1-methyl-indazole-5-yl)pyrimidin-2-yl)amino)-4-methoxyphenyl)acrylamide] | – | – | IC50 [1, 5]: 100 to 400 nM
– | – | COc1cc(N2CCN(C)CC2)ccc1Nc1nccc(-c2cc(F)c3nc(C)n(C(C)C)c3c2)n1 [Example 54, 4-(4-fluoro-1-isopropyl-2-methyl-1H-benzo[d]imidazole-6-yl)-N-(2-methoxy-4-(4-methylpiperazin-1-yl)phenyl)pyrimidin-2-amine] | – | 400 to 1000 nM | –
– | – | N-(2-(4-ethoxypiperidin)-1-yl)-5-((4-(4-fluoro-1-isopropyl-2-methyl-1H-benzo[d]imidazole-6-yl)pyrimidin-2-yl)amino)-4-methoxyphenyl)acrylamide [Example 14] | – | – | IC50 ([1]; MTS, 72 hours, read-out: A431 (WT) IC50): > 1000 nM; IC50 ([2]; MTS, 72 hours, read-out: HCC827 (Del19) IC50): 400 to 1000 nM

Compound | IC50 [3, 7] | IC50 [4, 10] | IC50 [2, 6] | IC50 [1, 8] | other results
C=CC(=O)Nc1cc(Nc2nccc(-c3cc(F)c4nc(OC)n(C(C)C)c4c3)n2)c(OC)cc1OCCN(C)C [Example 7] | 1 to 50 nM | – | 10 to 100 nM | – | IC50 [1, 5]: > 1000 nM
C=CC(=O)Nc1cc(Nc2nccc(-c3cc(F)c4nc(C)n(C(C)C)c4c3)n2)c(OC)cc1SCCN(C)C [Example 11, N-(2-(2-(dimethylamino)ethyl)(thio)-5-((4-(4-fluoro-1-isopropyl-2-methyl-1H-benzo[d]imidazole-6-yl)pyrimidin-2-yl)amino)-4-methoxyphenyl)acrylamide] | 1 to 50 nM | – | 10 to 100 nM | – | IC50 [1, 5]: 400 to 1000 nM
C=CC(=O)Nc1cc(Nc2nccc(-c3cc(F)c4nc(C)n(C(C)C)c4c3)n2)c(OC)cc1N1CCC(N2CCOCC2)CC1 [Example 13] | 1 to 50 nM | 1 to 50 nM | 10 to 100 nM | > 1000 nM | –
C=CC(=O)Nc1cc(Nc2nccc(-c3cc(F)c4nc(C)n(C(C)C)c4c3)n2)c(OC)cc1N1CCC(OC)CC1 [Example 15] | – | 1 to 50 nM | 100 to 400 nM | > 1000 nM | –
C=CC(=O)Nc1cc(Nc2nccc(-c3cc(F)c4nc(C)n(C(C)C)c4c3)n2)c(OC)cc1N1CCOCC1 [Example 16] | – | 1 to 50 nM | 100 to 400 nM | > 1000 nM | –
C=CC(=O)Nc1cc(Nc2nccc(-c3cc(F)c4nc(C)n(C(C)C)c4c3)n2)c(OC(F)F)cc1N(C)CCN(C)C [Example 47] | 1 to 50 nM | – | < 10 nM | 400 to 1000 nM | –
